Reference: patent US4558059A, “2-Substituted-phenylthiazole derivatives” (priority 1980, dated 1985)
Read-outs that look alike come from different tables or passages of the source.

Assays:
[1] = system: Peptic ulcer due to pyloric ligation; test: Effect on peptic ulcer due to pyloric ligation; format: in vivo, male rats; details: intraperitoneal, rats; for Ulcer coefficient: 100 mg/kg, just after ligation, 15 hours; for inhibition in vivo at 100 mg/kg: Rattus norvegicus, ip, 15 h, control ulcer coefficient 42.0 mm^2, read-out: Rate of suppression of ulcer
Experimental: Just after subjecting to ligation, each of the present compound suspended in an aqueous physiological saline solution was intraperitoneally administered to each rat, the control being injected with an aqueous physiological saline solution. Then, after 15 hours of fasting without taking water, the rats were sacrificed with ether and their stomachs were removed to examine under a microscope for anatomy. The length and width of the thus-formed ulcer in the stomach were determined and expressed by the product (mm^2), and the total sum of the products was represented as the ulcer coefficient.

[2] = system: Peptic ulcer due to acetic acid; test: Effect on peptic ulcer due to acetic acid (duodenal); format: in vivo, male rats; details: for Ulcer coefficient: orally 3 times a day for 10 days from third day; for inhibition in vivo at 100 mg/kg: Rattus norvegicus, po, 240 h, read-out: Rate of suppression of ulcer
Experimental: To the control group, only the aqueous physiological saline solution was administered. After the administration was over, the rats were sacrificed with ether, and their duodenum was removed to observe under a microscope for anatomy. The length and width of the thus-formed ulcer were measured and their product (expressed with mm^2) was recorded as the ulcer coefficient.

[3] = Acute toxicity test, oral; details: mouse, in vivo, p.o., female ICR-mice, mortality for a week, Litchfield-Wilcoxon
Experimental: Ten animals per group were kept in a transparent polycage at room temperature of 23°±1° C., and RH of 60 to 70%.
After minutely pulverizing each one of the present compounds, the pulverized compound was suspended in an aqueous 5% sodium carboxymethylcellulose solution containing 20% of Tween-80. The aqueous suspension was forcibly orally administered by a metal stomach tube, the dose rate having been adjusted by changing the concentration of the present compound in the aqueous suspension.

peptic ulcer = details: cited from earlier work
[4] = 100 mg/kg, orally 3 times a day for 10 days, rats, control ulcer coefficient 9.0 mm^2

Row | SMILES | Ulcer coefficient [1] [mm^2] | inhibition in vivo at 100 mg/kg [1] [%] | Ulcer coefficient ([2]; 100 mg/kg, rats) [mm^2] | inhibition in vivo at 100 mg/kg [2, 4] [%] | LD50 at 168 h [3] [mg/kg] | inhibition in vivo at 100 mg/kg [2] [%] | Effectiveness / curative effect ([2]; in words, rats) | Accelerating effect on the ulcer-curing (peptic ulcer; background statement) | Side effects (peptic ulcer; in vivo)
1 | CNC(=O)c1sc(-c2cc(OC)c(OC)c(OC)c2)nc1C [Compound 1, 2-(3,4,5-trimethoxyphenyl)-4-methylthiazole-5-methylcarboxamide] | 14.7 | 65 | 3.1 | 65.6 | – | – | – | – | –
2 | CCCNC(=O)c1sc(-c2cc(OC)c(OC)c(OC)c2)nc1C [Compound 2, 2-(3,4,5-trimethoxyphenyl)-4-methylthiazole-5-n-propylcarboxamide] | 6.3 | 85 | 2.7 | 70 | 5600 | – | – | – | –
3 | COc1ccc(-c2nc(C)c(C(N)=O)s2)cc1OC [Compound 3, 2-(3,4-dimethoxyphenyl)-4-methylthiazole-5-carboxamide] | 0.8 | 98.1 | 1.3 | – | – | 85.6 | – | – | –
4 | CNC(=O)c1sc(-c2ccc(OC)c(OC)c2)nc1C [Compound 4, 2-(3,4-dimethoxyphenyl)-4-methylthiazole-5-methylcarboxamide] | 11.0 | 73.8 | 1.8 | 80 | – | – | – | – | –
5 | CCCNC(=O)c1sc(-c2ccc(OC)c(OC)c2)nc1C [Compound 5, 2-(3,4-dimethoxyphenyl)-4-methylthiazole-5-n-propylcarboxamide] | 8.4 | 80 | 2.9 | 67.8 | – | – | – | – | –
6 | COc1ccccc1-c1nc(C)c(C(N)=O)s1 [Compound 6, 2-(2-methoxyphenyl)-4-methylthiazole-5-carboxamide] | 1.2 | 97.1 | 2.1 | 76.7 | – | – | – | – | –
7 | CNC(=O)c1sc(-c2ccccc2OC)nc1C [Compound 7, 2-(2-methoxyphenyl)-4-methylthiazole-5-methylcarboxamide] | 8.6 | 79.5 | 1.7 | 81.1 | – | – | – | – | –
8 | CCCNC(=O)c1sc(-c2ccccc2OC)nc1C [Compound 8, 2-(2-methoxyphenyl)-4-methylthiazole-5-n-propylcarboxamide] | 9.0 | 78.6 | 3.2 | 64.4 | – | – | – | – | –
9 | COc1ccc(-c2nc(C)c(C(N)=O)s2)cc1 [Compound 9, 2-(4-methoxyphenyl)-4-methylthiazole-5-carboxyamide] | 0.9 | 97.9 | 2.0 | 77.8 | – | – | – | – | –
10 | CNC(=O)c1sc(-c2ccc(OC)cc2)nc1C [Compound 10, 2-(4-methoxyphenyl)-4-methylthiazole-5-methylcarboxamide] | 6.4 | 84.8 | 3.1 | 65.6 | – | – | – | – | –
11 | CCCNC(=O)c1sc(-c2ccc(OC)cc2)nc1C [Compound 11, 2-(4-methoxyphenyl)-4-methylthiazole-5-n-propylcarboxamide] | 8.5 | 79.8 | 2.5 | 72.2 | – | – | – | – | –
12 | CC(C)=CCCC(C)=CCCC(C)=CCCC(=O)OCC=C(C)CCC=C(C)C [Gefarnate, 3,7dimethyl-2,6-octadienyl 5,9,13trimethyl-4,8,12-tetradecatrienoate, reference compound] | 36.9 | 12.1 | 7.2 | 20 | – | – | only a slight effectiveness is recognized | – | –
13 | CC1(C)[C@@H](OC(=O)CCC(=O)O)CC[C@]2(C)[C@H]3C(=O)C=C4[C@@H]5C[C@@](C)(C(=O)O)CC[C@]5(C)CC[C@@]4(C)[C@]3(C)CC[C@@H]12 [carbenoxolone] | – | – | – | – | – | – | – | excellent accelerating effect on the ulcer-curing | aldosterone-like side effects to cause hypertension and weakening of muscular function
